Laboratory results as given in patent US8822484B2, “Fused thiazolo and oxazolo pyrimidinones” (Torrent Pharmaceuticals Limited, priority 2009, dated 2014).

Columns and labels:
Format in all cases: cell-based
[1] = tested on: erythropoietin; experiment: In vitro erythropoietin induction (ELISA of culture supernatant); conditions: Hep3B cell line, relative to vehicle control; for EPO fold induction: 16 hours
Description: Hep3B cell line (ATCC HB8064) was employed. Induction of erythropoietin was carried out for the indicated dose of compounds for 16 hours duration. At the end of 16 hours, cell culture medium was collected and centrifuged to remove any debris. Supernatant obtained was analyzed for erythropoietin by ELISA (R&D systems, USA). The results were expressed as fold induction as compared to vehicle control.

[2] = tested on: adrenomedullin mRNA; experiment: In vitro induction of adrenomedullin (mRNA, real-time PCR); conditions: Hep3B cell line, 200 uM, 6 hours, normalized to 18S rRNA, relative to vehicle control
Description: Hep3B cell line (ATCC HB8064) was employed. […] At the end of 6 hours, cells were lysed and total RNA was isolated. Expression of adrenomedullin mRNA along-with expression of 18S rRNA was monitored by real-time PCR. Adrenomedullin mRNA expression was normalized relative to the expression of 18S rRNA. The results were expressed as fold induction of adrenomedullin mRNA relative to vehicle treated control.

[3] = tested on: VEGF; experiment: In vitro induction of vascular endothelial growth factor (ELISA of culture supernatant); conditions: Hep3B cell line, 200 uM, 16 hours, relative to vehicle control
Description: Hep3B cell line (ATCC HB8064) was employed. […] Supernatant obtained was analyzed for VEGF by ELISA (R&D systems, USA).

SMILES	EPO fold induction ([1]; 200 uM)	other results
CC(C)[C@H](NC(=O)c1c(O)nc2sc3c(n2c1=O)CCC(C)(C)C3)C(=O)O (single isomer, unassigned) [Compound 43, 2-[(2-Hydroxy-7,7-dimethyl-4-oxo-5,6,7,8-tetrahydro-4H-9-thia-1,4a-diaza-fluorene-3-carbonyl)-amino]-3-methyl-butyric acid (L-isomer)]	+ (<2 fold)	–
C[C@@H](NC(=O)c1c(O)nc2sc3c(n2c1=O)CCC(C)(C)C3)C(=O)O (single isomer, unassigned) [Compound 44, 2-[(2-Hydroxy-7,7-dimethyl-4-oxo-5,6,7,8-tetrahydro-4H-9-thia-1,4a-diaza-fluorene-3-carbonyl)-amino]-propionic acid (D-isomer)]	+ (<2 fold)	–
CC1(C)CCc2c(sc3nc(O)c(C(=O)N[C@H](C(=O)O)c4ccccc4)c(=O)n23)C1 (single isomer, unassigned) [Compound 55, [(2-Hydroxy-7,7-dimethyl-4-oxo-5,6,7,8-tetrahydro-4H-9-thia-1,4a-diaza-fluorene-3-carbonyl)-amino]-phenyl-acetic acid, L-isomer]	+ (<2 fold)	–
O=C(O)CNC(=O)c1c(O)nc2sc3c(n2c1=O)CCC3 [Compound 11, [(2-Hydroxy-4-oxo-7,8-dihydro-4H,6H-cyclopenta[4,5]thiazolo[3,2-a]pyrimidine-3-carbonyl)-amino]-acetic acid]	+++ (5-8 fold)	–
O=C(O)CCNC(=O)c1c(O)nc2sc3c(n2c1=O)CCC3 [Compound 14, 3-[(2-Hydroxy-4-oxo-7,8-dihydro-4H,6H-cyclopenta[4,5]thiazolo[3,2-a]pyrimidine-3-carbonyl)-amino]-propionic acid]	++ (2-4 fold)	–
COc1cc(OC)cc(C(=O)N2CCc3c(sc4nc(O)c(C(=O)NCC(=O)O)c(=O)n34)C2)c1 [Compound 41, {[7-(3,5-Dimethoxy-benzoyl)-2-hydroxy-4-oxo-5,6,7,8-tetrahydro-4H-9-thia-1,4a,7-triaza-fluorene-3-carbonyl]-amino}-acetic acid]	–	fold induction at 200 µM ([1]; Homo sapiens, Hep3B, 16 h, 200 uM, read-out: EPO fold induction): 2 to 4
CC1(C)CCc2c(sc3nc(O)c(C(=O)NCC(=O)[O-])c(=O)n23)C1.CC1(C)CCc2c(sc3nc(O)c(C(=O)NCC(=O)[O-])c(=O)n23)C1.[Na+].[Na+] [Compound 80, [(2-Hydroxy-7,7-dimethyl-4-oxo-5,6,7,8-tetrahydro-4H-9-thia-1,4a-diaza-fluorene-3-carbonyl)-amino]-acetic acid, Disodium salt]	++++ (9-16 fold)	–
O=C([O-])CNC(=O)c1c(O)nc2sc3c(n2c1=O)CCCCC3.O=C([O-])CNC(=O)c1c(O)nc2sc3c(n2c1=O)CCCCC3.[Na+].[Na+] [Compound 82, [(2-Hydroxy-4-oxo-6,7,8,9-tetrahydro-4H,5H-10-thia-1,4a-diaza-benzo[a]azulene-3-carbonyl)-amino]-acetic acid, Disodium salt]	–	EPO fold induction ([1]; 50 uM): ++++ (9-16 fold); Adrenomedullin mRNA (fold induction) [2]: +++ (5-8 fold); VEGF (Fold induction) [3]: ++ (2-4 fold induction of VEGF)
